The values below are quoted from earlier work in patent US20250302889A1, “Ingestible Nutritive Compositions With Prebiotics, Probiotics, and Postbiotics” (First Day Life, Inc., priority 2024, published 2025).

For series [1] the following is noted: 24 hours after injection, vs carrageenan control group.
For series [2] the following is noted: 24 hours; probiotics 10^8 CFUs, diclofenac sodium 150 mg/kg, single dose.
For series [3] the following is noted: 24 hours after injection, vs carrageenan control group. This is another data set of the same source.

Each structure is given as a SMILES string.

In the case of `O=C(O)Cc1ccccc1Nc1c(Cl)cccc1Cl` [diclofenac sodium], the “stair climbing activity (steps climbed)” value in series [1] is given as “climbed significantly more steps”. Also, the inhibition of edema entry in series [2] is “about 34%”. Moreover, the motility test score entry in series [3] is reported as “scored significantly higher”.
